Measured values: BindingDB's records for doi:10.1021/jm960083n (Dupont Pharmaceuticals, 1996)

target: T1, Dimer of Gag-Pol polyprotein [489-587] (Human immunodeficiency virus 1, UniProt P12497); test: Protease Inhibition Assay; conditions: pH 5.5; 37 °C
T1 construct: 489-587
Procedure: Inhibition of HIV protease was measured by assay of the cleavage of a fluorescent peptide substrate. The fluorescent product (2-aminobenzoyl-Ala-Thr-His-Gln-Val-Tyr) was separated from the fluorescent substrate by anion-exchange HPLC on a Mono-Q anion-exchange column (Pharmacia), and fluorescence was monitored at an excitation wavelength of 330 nm and an emission wavelength of 430 nm. Ki values for inhibitor binding were estimated at fixed concentrations of substrate and inhibitor from fractional activity measurements by use of the modified Michaelis-Menten equation.

Row | Structure (SMILES) | Ki
1 | COc1cc(C[C@@H]2[C@H](O)[C@@H](O)[C@@H](Cc3cc(OC)cc(OC)c3)N(Cc3cccc(C(C)=O)c3)C(=O)N2Cc2cccc(C(C)=O)c2)cc(OC)c1 [(4R,5S,6S,7R)-4,7-bis[(3,5-dimethoxyphenyl)methyl]-1,3-bis[(3-acetylphenyl)methyl]-5,6-dihydroxy-1,3-diazepan-2-one] | 0.4 nM
2 | CC(=O)c1cccc(CN2C(=O)N(Cc3cccc(C(C)=O)c3)[C@H](Cc3ccc4c(c3)OCO4)[C@H](O)[C@@H](O)[C@H]2Cc2ccc3c(c2)OCO3)c1 [(4R,5S,6S,7R)-Hexahydro-5,6-dihydroxy-1,3-bis(3-acetylbenzyl)-4,7-bis((3,4-(methylenedioxy)phenyl)methyl)-2H-1,3-diazapin-2-one] | 0.043 nM
3 | CC(=O)c1cccc(CN2C(=O)N(Cc3cccc(C(C)=O)c3)[C@H](Cc3ccc4c(c3)N(C)CCO4)[C@H](O)[C@@H](O)[C@H]2Cc2ccc3c(c2)N(C)CCO3)c1 [(4R,5S,6S,7R)-Hexahydro-5,6-dihydroxy-1,3-bis(3-acetylbenzyl)-4,7-bis((4-methyl-3,4-dihydro-2H-benzo[b][1,4]-oxazin-6-yl)methyl)-2H-1,3-diazapin-2-one] | 0.08 nM
4 | CC(=O)c1cc(CN2C(=O)N(Cc3ccc(F)c(C(C)=O)c3)[C@H](Cc3ccc4c(c3)OCO4)[C@H](O)[C@@H](O)[C@H]2Cc2ccc3c(c2)OCO3)ccc1F [(4R,5S,6S,7R)-Hexahydro-5,6-dihydroxy-1,3-bis(4-fluoro-3-acetylbenzyl)-4,7-bis((3,4-(methylenedioxy)phenyl)methyl)-2H-1,3-diazapin-2-one] | 1.5 nM
